Experimental data published in PubChem BioAssay (NCI).
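Exposure lasted 48 hours, with cells grown in 96-well plates and compounds tested at five concentrations. At the GI50, growth is halved. At the TGI there is no net growth.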

Key:
Experiment in all cases: NCI-60 cell line screen, 48 h
SK-MEL-28 melanoma = test system: SK-MEL-28 melanoma
HL-60(TB) leukemia = test system: HL-60(TB) leukemia
UO-31 renal = test system: UO-31 renal
UACC-257 melanoma = test system: UACC-257 melanoma
HOP-62 NSCLC = test system: HOP-62 NSCLC
OVCAR-3 ovarian = test system: OVCAR-3 ovarian
M14 melanoma = test system: M14 melanoma
NCI-H522 lung = test system: NCI-H522 lung
EKVX NSCLC = test system: EKVX NSCLC
SNB-75 CNS = test system: SNB-75 CNS

| Structure (SMILES) | GI50 (SK-MEL-28 melanoma) | TGI (SK-MEL-28 melanoma) | GI50 (HL-60(TB) leukemia) | TGI (HL-60(TB) leukemia) | GI50 (UO-31 renal) | TGI (UO-31 renal) | GI50 (UACC-257 melanoma) | TGI (UACC-257 melanoma) | GI50 (HOP-62 NSCLC) | TGI (HOP-62 NSCLC) | GI50 (OVCAR-3 ovarian) | TGI (OVCAR-3 ovarian) | GI50 (M14 melanoma) | TGI (M14 melanoma) | GI50 (NCI-H522 lung) | TGI (NCI-H522 lung) | GI50 (EKVX NSCLC) | TGI (EKVX NSCLC) | GI50 (SNB-75 CNS) | TGI (SNB-75 CNS) |
| --- | --- | --- | --- | --- | --- | --- | --- | --- | --- | --- | --- | --- | --- | --- | --- | --- | --- | --- | --- | --- |
| [2H]c1nc(=Nc2cc(NC(=O)C=C)c(N(C)CCN(C)C)cc2OC)[nH]c(-c2cn(C([2H])([2H])[2H])c3ccccc23)c1[2H] | 1.78 µM | 3.33 µM | 0.848 µM | 2.5 µM | 0.943 µM | 2.25 µM | 2.19 µM | 3.88 µM | 4.25 µM | 20.7 µM | 1.18 µM | 2.83 µM | 1.67 µM | 3.23 µM | 0.265 µM | 2.24 µM | 0.853 µM | 11.5 µM | 10.8 µM | 24.8 µM |
| Nc1ccccc1C(=O)C(Br)C(Br)c1ccc2c(c1)OCO2 (stereo unspecified) |  | 70.4 µM |  | > 100 µM |  | 45.1 µM |  | 44.9 µM |  | 51 µM |  | 36.1 µM |  | 41.3 µM |  | 48.1 µM |  | 52 µM |  | 60.9 µM |
| CC(C)[O-].CC(C)[O-].O=c1cccccc1[O-].O=c1cccccc1[O-].[Ti+4] |  | > 100 µM |  | > 100 µM |  | > 100 µM |  | > 100 µM | > 100 µM | > 100 µM |  | > 100 µM |  | > 100 µM |  | 62.8 µM |  | > 100 µM |  | > 100 µM |
| COc1cccc(COc2cc(-n3cnc4ccccc43)sc2C(N)=O)c1 | > 24 µM | > 25 µM | 6.03 µM | > 25 µM | > 25 µM | > 25 µM | > 25 µM | > 25 µM | 5.34 µM | > 25 µM | 5.09 µM | > 25 µM | > 25 µM | > 25 µM | 9.92 µM | > 25 µM | > 25 µM | > 25 µM | > 12.2 µM | > 25 µM |
| COc1cc(C2c3cc4c(cc3[C@@H](Nc3ccc5c(c3)OCCO5)C3COC(=O)[C@H]23)OCO4)cc(OC)c1O (stereo partly specified) |  | > 47.6 µM |  | 0.241 µM |  | 12.9 µM |  | > 32.3 µM |  | 1.31 µM |  | 7.1 µM |  | 5.08 µM |  | 5.43 µM |  | 17 µM |  | 5.59 µM |
| Cc1c(C(=O)/C=C/c2ccccc2[N+](=O)[O-])[n+](=O)c2ccccc2n1[O-] |  | 25.5 µM |  | 5.71 µM |  | 33 µM |  | 20.4 µM |  | 32.2 µM |  | 13.3 µM |  | 23.1 µM |  | 19.1 µM |  | 27.6 µM |  | 30.3 µM |
| O=S1CSSC1 |  | 59.8 µM |  | 61.5 µM |  | 34.7 µM |  | 36.4 µM |  | 98.6 µM |  | 58.9 µM |  | 55.8 µM |  | 25.9 µM |  | 77.8 µM |  | 92.6 µM |
| Cc1ccc(NC(=O)/C(Cc2nc3ccc([N+](=O)[O-])cc3[nH]c2=O)=N\NC(=O)C[n+]2ccccc2)c(C)c1 |  | > 100 µM |  | 81.8 µM |  | 41.1 µM |  | > 100 µM |  | > 100 µM |  | 59.3 µM |  | > 100 µM |  | 61.6 µM |  | > 100 µM |  | > 100 µM |
| Nc1cc(-c2ccc(Cl)cc2)nn1-c1nnc(/C=C/c2ccco2)c(=O)[nH]1 | 6.42 µM | 61 µM | 4.23 µM | > 28.6 µM | 2.41 µM | 22.6 µM | 6.55 µM | 47.3 µM | 6.83 µM | 60.1 µM | 2.16 µM | 8.45 µM | 3.41 µM | 30.6 µM | 8.95 µM | 40.3 µM | 4.11 µM | > 55.7 µM | 12.9 µM | 41.4 µM |
